We go through one compound from paper PMC8591201, “Anti-Tumor Activity of AZD4547 Against NTRK1 Fusion Positive Cancer Cells Through Inhibition of NTRKs” (Frontiers in Oncology, 2021).

Holding throughout (assay): cells
What all share (design): Anti-proliferation, 10-point dose response, CellTiter-Glo luminescence (MTT stated for KM12(Luc)), GI50 fitted in Prism
(In general: Cellular ATP, detected with luciferase, serves as a proxy for viable cell number.)

Assay [1] relates to A172. The following applies: Homo sapiens, A 172, 72 h, read-out: GI50 (µM) a. The procedure:
(§1) To obtain the GI50 value of a substance, cell viability was measured using MTT (G4000, Promega, USA) for KM12(Luc) cell and Cell titer glo (G7572, Promega, USA) for other cell lines. For adherent cells, cells were seeded at 5,000 cells/well in a 96-well plate and treated with a substance one day after cell seeding. For suspension cells, 10,000 cells/well were seeded and the substance was treated after 4 h stabilization of cells. The substance was treated at 10 points of 1:3 serial dilution (0–100 µmol/L) for 72 h. For MTT assay, 15 µL dye solution was added to each well and incubated 4 h at 37°C. 100 µL of solubilization solution was added and followed 1 hr incubation. Absorbance at 570 nm of each well was recorded using EnVision microplate reader (Perkin Elmer). For Cell titer glo assay, Cell titer glo reagent was treated in each well and measured the luminescence by EnVision microplate reader (Perkin Elmer). Viable cells in each well were normalized by using 0.5% DMSO-treated wells (100%). The inhibitor dose−response curve was fitted and GI50 values were calculated using Prism 7.0 software (GraphPad). All assays were performed in duplicate and the standard deviation (SD) was determined from two independent experiments. KM12(Luc) was purchased from the JCRB cell bank. KM12 (Luc) was used within 6 months after purchase and the DNA profiles were confirmed using a short tandem repeat (STR) analysis by the Korean Cell Line Bank. KM12(Luc) cells were maintained in DMEM supplemented with 10% FBS and antibiotics. Parental Ba/F3 cells were purchased from DSMZ and were grown in RPMI1640 supplemented with 10% FBS and antibiotics in the presence of IL3, Transformed Ba/F3 cell lines were grown in the same media without IL3. Cells used in this study were negative for mycoplasma contamination. AN3-CA, HEC1A, U138, 8505C, MKN28, MKN45, A172, A375, Capan-1 HeLa, HEP3B, MCF-7 and MIA-paca-2 cells were maintained in DMEM (Welgene, Korea) supplemented with 10% FBS and antibiotics (Welgene, Korea). Otherwise, all cells were maintained in RPMI (Welgene, Korea) supplemented with 10% FBS and antibiotics (Welgene, Korea). To identify AZD4547 sensitive cell lines other than FGFR-mutant driven cancer cells, GI50 values were determined for AZD4547 against 64 different cancer cell lines, including AN3-CA used as a positive control ( Figure 1A and Table S1 ). […] Also, inhibitory activity of AZD4547 against DDR1 or FLT3 allows suppression of proliferation of U-2-OS and MV4-11 ([43]). Therefore, our attention focused on the inhibitory activity of AZD4547 against KM12(Luc) cell lines which have the TPM3-NTRK1 fusion gene. To exclude the possibility that the anti-proliferation activity of AZD4547 against KM12(Luc) is a common characteristic of FGFR inhibitors, we determined if BGJ398, a representative FGFR inhibitor, is also capable of suppressing proliferation of KM12(Luc) cells ( Figure 1B ).

Assay [2] relates to HCC70. Particulars: Homo sapiens, HCC70, 72 h, read-out: GI50 (µM) a. The procedure: as §1
Assay [3] concerns HEC1A. Particulars: Homo sapiens, HEC-1-A, 72 h, read-out: GI50 (µM) a. The procedure:
as §1

Assay [4] has as its system HT-29. The following applies: Homo sapiens, HT-29, 72 h, read-out: GI50 (µM) a. The procedure:
as §1

In assay [5] the test system is HuH-7. The following applies: Homo sapiens, Huh-7, 72 h, read-out: GI50 (µM) a. The procedure:
as §1

The subject of assay [6] is MDA-MB-231. The following applies: Homo sapiens, MDA-MB-231, 72 h, read-out: GI50 (µM) a. The procedure: as §1
Assay [7] has as its system MDA-MB-453. Particulars: Homo sapiens, MDA-MB-453, 72 h, read-out: GI50 (µM) a. The protocol:
as §1

Assay [8] has as its system MV-4-11. The following applies: Homo sapiens, MV4-11, 72 h, read-out: GI50 (µM) a. The protocol:
as §1

Assay [9] concerns NCI-H1299. Particulars: Homo sapiens, NCI-H1299, 72 h, read-out: GI50 (µM) a. The procedure: as §1
Assay [10] has as its system PANC-1. The following applies: Homo sapiens, PANC-1, 72 h, read-out: GI50 (µM) a. The protocol:
as §1

For assay [11], the system named is RS4-11. The following applies: Homo sapiens, RS4-11, 72 h, read-out: GI50 (µM) a. The procedure:
as §1

Assay [12] deals with T98G. Particulars: Homo sapiens, T98G, 72 h, read-out: GI50 (µM) a. The procedure:
as §1

In general, GI50 refers to the concentration giving 50% growth inhibition. With `COc1cc(CCc2cc(NC(=O)c3ccc(N4C[C@@H](C)N[C@@H](C)C4)cc3)n[nH]2)cc(OC)c1` [AZD4547], the GI50 was 2.18 µM in assay [1]; 16.6 µM in assay [2]; 35.6 µM in assay [3]; 9.63 µM in [4]; 1.35 µM in assay [5]; 20.9 µM in assay [6]. The GI50 in assay [7] was 5.36 µM; in [8] it was 0.93 µM; in assay [9] it was 60.6 µM; in [10] it was 8.65 µM; in [11] it was 3.24 µM; in assay [12], 5.21 µM.
